According to patent publication US11478445B2, “Method for treating acute myeloid leukemia” (Bionomics Limited, priority 2017, dated 2022):
“Also recorded” adds a separate entry of the source.

Columns and labels:
AML cell lines [1] = assay: Cytotoxicity (CellTox Green) and viability/proliferation (CellTiter-Blue) assays; assay type: cell-based
Protocol: The cell lines were plated in 96-well plates (black with clear flat bottom, Costar, 3603) at 2×10^4 cells/well in 50 uL of respective media, containing 0.1% DMSO and CellTox Green reagent (Promega, G8742) at a final dilution of 1/500. Cells were plated in triplicate wells for each dose being tested. EX 1 was reconstituted immediately prior to use at 10 mM in DMSO. The drug was prepared 2× concentrated in media containing 0.1% DMSO and 50 uL added to respective wells. Fluorescence (485-500 nmEx/520-530 nmEm) was measured at 24 h and 48 h with a FLOUstar OPTIMA plate reader (BMG Labtech). After the cytotoxicity measurement at 48 h, 20 μL of CellTiter-Blue reagent (Promega, G8080) was added to each well and the plate incubated for 1 h at 37° C. before fluorescence (560Ex/590Em) was measured with a FLOUstar OPTIMA plate reader (BMG Labtech).
The first experiment was performed with HL60 and MOLM13 cell lines. Cells were expanded and when numbers were adequate (and viability higher than 90%) they were plated in 96-well plates at 2×10^4 cells/well in 50 uL of their respective media, containing 0.1% DMSO and CellTox Green reagent. Doses tested ranged from 1 μM followed by serial 1/10 dilutions until 10^−5 nM EX 1, or vehicle only. Plates were cultured and fluorescence (indicating cytotoxicity) was measured at 24 h and 48 h. After the cytotoxicity was read at 48 h, CellTiter-Blue reagent was added to each well. The readout of this assay is based on the metabolic activity of cells and it is used as surrogate marker for proliferation and/or cell viability.
The next experiment was performed with the cell lines ME1, OCI-AML3, MV4; 11 and KG1 following the same protocol as above. From the results from the previous experiment it was observed that the non-linear curve fit was very steep between 1 nM and 0.1 nM (FIGS. 1A and B); thus, for this and the subsequent experiments the drug doses were adjusted to: […], 10 nM, 1 nM, 0.75 nM, 0.5 nM, 0.25 nM, 0.1 nM, 0.01 nM and 0.001 nM. […] Cytotoxicity and proliferation (metabolic assay) were measured as above. […]

AML cell lines [2] = assay: Cell cycle assay (PI staining); assay type: cell-based
Protocol: 2×10^5 cells were harvested into 5 mL tubes and washed 3 times with PBS. Cell pellets were resuspended in 300 μL of cold PBS while vortexing. Next, cells were permeabilised with 700 μL of cold (−20° C.) 100% ethanol added dropwise while vortexing at slow speed. Cell suspensions were incubated on ice for 30 min, centrifuged at 300 g for 10 min and cell pellets resuspended in 100 μL PI solution (0.1% Triton X-100, 100 μg/mL DNAse-free RNAse A-Sigma, and 40 µg/mL PI in PBS). Cell suspensions were incubated at 37° C. for 30 min in the dark. 200 μL of PBS was added to each tube before analysis on an LSRFortessa (BD Biosciences) flow cytometer. Results were analysed with FCS Express 4 Flow Research Edition software (De Novo Software).
For that, cells were plated at 10^6 cells/mL and treated with vehicle (DMSO) alone or a range of doses of EX 1 (0.1 nM, 1 nM, 10 nM and 100 nM) for 6 h, 8 h and 24 h. Cells were harvested for detection of ROS and superoxide anion (O2^·−) levels at 6 h and 24 h, for protein extraction at 8 h and 24 h, and for cell cycle analysis at 24 h.
Therefore, cell cycle analysis was performed by PI staining in the cell lines after 24 h of treatment with a range of doses of EX 1, as described above.

COc1cc(C(=O)c2c(C)oc3c(O)c(OC)ccc23)cc(OC)c1OC [EX 1, 2-Methyl-7-hydroxy-3-(3,4,5-trimethoxybenzoyl)-6-methoxybenzofuran]
cytotoxicity and CellTiter response (AML cell lines [1]; less sensitive cell lines ME1, OCI-AML3 and KG1): showed a lower cytotoxicity response | cytotoxicity and inhibitory proliferation response (AML cell lines [1]; more sensitive cell lines HL60, MOLM13 and MV4;11): reached the highest cytotoxicity and showed the largest inhibitory proliferation response | IC50 (AML cell lines [1]; range over six AML cell lines (MV4;11, MOLM13, HL60, KG1, ME1, OCI-AML3), 48 h, FIGS. 1A and B, read-out: IC50 doses (cytotoxicity and viability)): 0.2 to 1.3 nM | cell cycle distribution (G2/M) (AML cell lines [2]; HL60, KG1, OCI-AML3 and ME1, 24 h): G2/M cell cycle arrest | sub-G0 cell population (AML cell lines [2]; KG1 and HL60, 24 h): marked increases in the sub-G0 cell population; also recorded: increase in sub-G0 population starting at treatment with 10 nM | percentage of cells in G2/M and G1 (AML cell lines [2]; MV4;11 and MOLM13, 24 h): dose-dependent reduction | sub-G0 population (apoptosis) (AML cell lines [2]; MV4;11 and MOLM13, 24 h): underwent apoptosis as evidenced by the increase in sub-G0 population | cell cycle distribution (sub-G0, G2/M) (AML cell lines [2]; MV4;11 and MOLM13, 24 h, 10 nM): marked apoptosis induction (sub-G0 gate) and G2/M reduction
